Assay results as given in patent US9987209B2, “Multi-functional composition for cosmetic formulations” (Arch Chemicals, Inc., priority 2013, dated 2018).
Converted amounts (≈) assume the structure as drawn.

How the values were obtained:
Test in all cases: minimum inhibitory concentration (MIC), microtiter broth dilution
Type in all cases: cell-based
[1] = tested on: Aspergillus brasiliensis ATCC 16404; conditions: Table 2, ppm per product, stock solutions in alcohol, 28° C. for 5 days; for MIC: Aspergillus brasiliensis, ATCC16404, 120 h
Description: (§1) The following compositions were formulated and tested for antimicrobial efficacy. In particular, the compositions were tested for minimum inhibitory concentration (MIC).
(§2) Staphylococcus aureus ATCC 6538, Pseudomonas aeruginosa ATCC 9027, Klebsiella pneumonia ATCC 4352, Burkholderia cepacia ATCC 25416, Enterobacter gergoviae ATCC 33028, Candida albicans ATCC 10231, Aspergillus brasiliensis ATCC 16404, and 2 Penicillium sp. were revived from refrigerated slants and plated on TSA plates for bacteria, SDA plates for yeast, and PDA plates for mold. The broth media used for MIC determination on microtiter plates were TSB for bacteria and SDB for fungi.
(§3) All prepared solutions were considered as products and were tested at the concentration starting at 10,000 ppm per product. Samples were diluted with 2-fold serial dilution into the appropriate broth media on microtiter plates. The bacterial inoculum at concentration of 1×10^6 CFUs/mL and fungal inoculum at concentration of 1×10^5 cells or spores/mL were suspended in regular strength broth and added to the wells in 1:1 ratio to the sample/medium mixtures on microtiter plates. The final concentration of bacteria was 5×10^5 CFUs/mL; the final concentration of fungi was 5×10^4 cells or spores/mL. Bacterial plates were incubated at 35° C. for 2 days and fungal plates were incubated at 28° C. for 5 days before reading results.
(§4) In this example, two compositions made according to the present disclosure were tested for minimum inhibitory concentration (MIC) as described in Example No. 1. In this example, the first sample tested was the same as Sample No. 4 described above in Example No. 1. The second sample (Sample No. 8) was identical to Sample No. 4 except 1,3 propanediol was replaced with 1,5 pentanediol. […]

[2] = tested on: Candida albicans ATCC 10231; conditions: Table 2, ppm per product, stock solutions in alcohol, 28° C. for 5 days; for MIC: Candida albicans, ATCC10231, 120 h
Description: as §1, §2, §3, §4

[3] = tested on: Pseudomonas aeruginosa ATCC 9027; conditions: Table 2, ppm per product, stock solutions in alcohol, 35° C. for 2 days; for MIC: Pseudomonas aeruginosa, ATCC9027, 48 h, read-out: minimum inhibitory concentration (MIC), Ps. aeruginosa
Description: as §1, §2, §3, §4

[4] = tested on: Staphylococcus aureus ATCC 6538; conditions: Table 2, ppm per product, stock solutions in alcohol, 35° C. for 2 days; for MIC: Staphylococcus aureus, ATCC6538, 48 h, read-out: minimum inhibitory concentration (MIC), S. aureus
Description: as §1, §2, §3, §4

[5] = tested on: Burkholderia cepacia ATCC 25416; conditions: Table 2, ppm per product, stock solutions in alcohol, 35° C. for 2 days; for MIC: Burkholderia cepacia, ATCC25416, 48 h, read-out: minimum inhibitory concentration (MIC), B. cepacia
Description: as §1, §2, §3

[6] = tested on: Enterobacter gergoviae ATCC 33028; conditions: Table 2, ppm per product, stock solutions in alcohol, 35° C. for 2 days; for MIC: Pluralibacter gergoviae, ATCC33028, 48 h, read-out: minimum inhibitory concentration (MIC), E. gergoviae
Description: as §1, §2, §3

[7] = tested on: Klebsiella pneumonia ATCC 4352; conditions: Table 2, ppm per product, stock solutions in alcohol, 35° C. for 2 days; for MIC: Klebsiella pneumoniae, ATCC4352, 48 h, read-out: minimum inhibitory concentration (MIC), K. pneumonia
Description: as §1, §2, §3

Penicillium sp. = conditions: Table 2, ppm per product, stock solutions in alcohol, 28° C. for 5 days; for MIC: Penicillium, 120 h
Description: as §1, §2, §3

Row | MIC [1] | MIC [2] | MIC [3] | MIC [4] | MIC [5] | MIC [6] | MIC [7] | MIC (Penicillium sp.) | SMILES | minimum inhibitory concentration (MIC), A. brasiliensis [1] | minimum inhibitory concentration (MIC), C. albicans [2] | minimum inhibitory concentration (MIC), Ps. aeruginosa [3] | minimum inhibitory concentration (MIC), S. aureus [4] | minimum inhibitory concentration (MIC), B. cepacia [5] | minimum inhibitory concentration (MIC), E. gergoviae [6] | minimum inhibitory concentration (MIC), K. pneumonia [7] | minimum inhibitory concentration (MIC), Penicillium sp. (Penicillium sp.)
1 | > 10000 µg/mL | 2500 µg/mL (≈ 17.3 mM) | 10000 µg/mL (≈ 69.3 mM) | > 10000 µg/mL | 10000 µg/mL (≈ 69.3 mM) | > 10000 µg/mL | > 10000 µg/mL | 7500 µg/mL (≈ 52 mM) | CCCCCCCC(=O)O [2.5% Octanoic Acid, Octanoic Acid] | – | – | – | – | – | – | – | –
2 | 5000 µg/mL (≈ 32.9 mM) | 2500 µg/mL (≈ 16.4 mM) | 5000 µg/mL (≈ 32.9 mM) | 10000 µg/mL (≈ 65.7 mM) | 5000 µg/mL (≈ 32.9 mM) | 10000 µg/mL (≈ 65.7 mM) | 10000 µg/mL (≈ 65.7 mM) | 2500 µg/mL (≈ 16.4 mM) | COc1cc(C=O)ccc1O [20% Vanillin, Vanillin] | – | – | – | – | – | – | – | –
3 | – | – | – | – | – | – | – | – | OCCCO [50% 1,3-Propanediol, 1,3-Propanediol] | >10,000 ppm | 10,000 ppm | 10,000 ppm | >10,000 ppm | 10,000 ppm | >10,000 ppm | >10,000 ppm | >10,000 ppm
